Source: US9247759B2, “Identification of human T2R receptors that respond to bitter compounds that elicit the bitter taste in compositions, and the use thereof in assays to identify compounds that inhibit (block) bitter taste in compositions and use thereof” (SENOMYX, INC., priority 2007, dated 2016)
Read-outs that look alike come from different tables or passages of the source.

Legend:
hT2R3 = hT2R3 (Homo sapiens (Human), UniProt Q9NYW6); assay: hT2R panel inhibition, transient HEK293 G16g44, agonist Chloroquine pH6.5 50 μM; assay type: cell-based; details: HEK293, compound at 25 μM; receptor activated to EC80 with the corresponding agonist; read-out: screening result against bitter receptor 3
Method: (§1) Specifically, in order to evaluate the inhibitory selectivity of the Compound C compound, this compound was tested against 22 human T2Rs which were deorphaned by Senomyx. These receptors and the bitter ligands that activate these human T2Rs are reported in earlier patent applications which are incorporated by reference herein. These 22 human T2Rs are hT2R1, 3, 4, 5, 7, 8, 9, 10, 13, 14, 16, 44, 51, 54, 55, 61, 63, 64, 65, 67, 71 and 75. The amino acid and nucleic acid sequences of all of these T2Rs may be found in these earlier patent applications. These human T2Rs were each individually transiently transfected into HEK293 cells that stably express the promiscuous G protein G16g44 and functional assays were effected using these receptors as disclosed in these same patent applications. […] The ligands were used at EC80 concentration levels. The list of bitter ligands utilized and the tested ligand concentrations are contained in Table 5 of this example.
(§2) Relating to the foregoing, FIG. 5 contains experimental results wherein Compound C was tested with different agonist compounds. The inhibition activity is represented by the reduction of receptor activity in the presence of Compound C. […] These 13 hT2Rs are hT2R3, 7, 10, 14, 16, 44, 51, 55, 61, 63, 64, 65, and 71.

hT2R55 = assay: hT2R panel inhibition, transient HEK293 G16g44, agonist Cinchonine 150 μM; assay type: cell-based, human; details: compound at 25 μM; for screening result against bitter receptor 55: receptor activated to EC80 with the corresponding agonist
Method: as §1, §2

hT2R64 = hT2R64 (Homo sapiens (Human), UniProt P59538); assay: hT2R panel inhibition, transient HEK293 G16g44, agonist Aristolochic Acid 1 μM; assay type: cell-based; details: HEK293, compound at 25 μM
How it was run: (§3)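 Agonist concentrations were set at EC80 for each receptor. Activity was compared with and without the test compound, and the reduction recorded as inhibition, across 22 individually transfected human T2Rs.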

hT2R16 = hT2R16 (Homo sapiens (Human), UniProt Q9NYV7); assay: hT2R panel inhibition, transient HEK293 G16g44, agonist Salicin 1 mM; assay type: cell-based; details: HEK293, compound at 25 μM
Method: as §1, §2

hT2R14 [1] = target: T1, hT2R14 (Homo sapiens (Human), UniProt Q9NYV8); assay: hT2R14 antagonist high-throughput FLIPR assay, stable cell line with G16g44, agonist aristolochic acid; assay type: cell-based; details: read-out: IC50 on hT2R14 bitter receptor
How it was run: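 HEK293 cells stably expressing hT2R14 with chimeric G16g44 were stimulated with aristolochic acid (3 μM), giving 70-80% of maximal receptor activity. Test compounds were added together with the agonist, and antagonism was read as fluorescent calcium signal on FLIPR.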

hT2R14 [2] = target: T1, hT2R14; assay: hT2R panel inhibition, transient HEK293 G16g44, agonist Aristolochic Acid 2 μM; assay type: cell-based; details: HEK293, compound at 25 μM
How it was run: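 Each hT2R was transiently transfected into HEK293 cells stably expressing G16g44 and assayed functionally for inhibition of agonist response. Agonists were applied at EC80: andrographolide at 0.5 mM for hT2R8 and aristolochic acid at 2 μM for hT2R14.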

hT2R10 = hT2R10 (Homo sapiens (Human), UniProt Q9NYW0); assay: hT2R panel inhibition, transient HEK293 G16g44, agonist Strychnine 50 μM; assay type: cell-based; details: HEK293, read-out: screening result against bitter receptor 10, compound at 25 μM; receptor activated to EC80 with the corresponding agonist
Method: as §1, §2

hT2R71 = hT2R71 (Homo sapiens (Human), UniProt P59536); assay: hT2R panel inhibition, transient HEK293 G16g44, agonist Picric Acid 10 μM; assay type: cell-based; details: HEK293, compound at 25 μM
How it was run: as §3

hT2R65 = assay: hT2R panel inhibition, transient HEK293 G16g44, agonist Oleuropein 1 mM; assay type: cell-based, human; details: compound at 25 μM; receptor activated to EC80 with the corresponding agonist
Method: as §1, §2

hT2R5 = hT2R5 (Homo sapiens (Human), UniProt Q9NYW4); assay: hT2R panel inhibition, transient HEK293 G16g44, agonist Picoline 10 mM; assay type: cell-based; details: HEK293, compound at 25 μM; receptor activated to EC80 with the corresponding agonist; read-out: screening result against bitter receptor 5
Method: as §1, §2

hT2R54 = assay: hT2R panel inhibition, transient HEK293 G16g44, agonist Ranitidine 5 mM; assay type: cell-based, human; details: compound at 25 μM; for screening result against bitter receptor 54: receptor activated to EC80 with the corresponding agonist
Method: as §1, §2

hT2R44 = assay: hT2R panel inhibition, transient HEK293 G16g44, agonist Denatonium 0.5 μM; assay type: cell-based, human; details: compound at 25 μM; for screening result against bitter receptor 44: receptor activated to EC80 with the corresponding agonist
Method: as §1, §2

hT2R63 = assay: hT2R panel inhibition, transient HEK293 G16g44, agonist Caffeine 1 mM or Andrographolide 100 μM; assay type: cell-based, human; details: compound at 25 μM; for screening result against bitter receptor 63: receptor activated to EC80 with the corresponding agonist
How it was run: as §3

hT2R61 = hT2R61 (Homo sapiens (Human), UniProt P59537); assay: hT2R panel inhibition, transient HEK293 G16g44, agonist Aristolochic Acid 25 nM; assay type: cell-based; details: HEK293, compound at 25 μM
How it was run: as §3

hT2R7 = hT2R7 (Homo sapiens (Human), UniProt Q9NYW3); assay: hT2R panel inhibition, transient HEK293 G16g44, agonist Chloroquine pH6.5 10 mM; assay type: cell-based; details: HEK293, compound at 25 μM; receptor activated to EC80 with the corresponding agonist; read-out: screening result against bitter receptor 7
Method: as §1, §2

hT2R67 = assay: hT2R panel inhibition, transient HEK293 G16g44, agonist Andrographolide 5 μM; assay type: cell-based, human; details: compound at 25 μM; for screening result against bitter receptor 67: receptor activated to EC80 with the corresponding agonist
Method: as §1, §2

hT2R51 = hT2R51 (Homo sapiens (Human), UniProt P59533); assay: hT2R panel inhibition, transient HEK293 G16g44, agonist Prop 2.5 μM; assay type: cell-based; details: HEK293, compound at 25 μM; receptor activated to EC80 with the corresponding agonist; read-out: screening result against bitter receptor 51
Method: as §1, §2

[3] = receptor activated to EC80 with the corresponding agonist, read-out: screening result against bitter receptor 64
[4] = receptor activated to EC80 with the corresponding agonist, read-out: screening result against bitter receptor 16
[5] = receptor activated to EC80 with the corresponding agonist, read-out: screening result against bitter receptor 14
[6] = receptor activated to EC80 with the corresponding agonist, read-out: screening result against bitter receptor 71
[7] = receptor activated to EC80 with the corresponding agonist, read-out: screening result against bitter receptor 61
[8] = receptor activated to EC80 with agonist

hT2R7, sequence (Q9NYW3 whole entry): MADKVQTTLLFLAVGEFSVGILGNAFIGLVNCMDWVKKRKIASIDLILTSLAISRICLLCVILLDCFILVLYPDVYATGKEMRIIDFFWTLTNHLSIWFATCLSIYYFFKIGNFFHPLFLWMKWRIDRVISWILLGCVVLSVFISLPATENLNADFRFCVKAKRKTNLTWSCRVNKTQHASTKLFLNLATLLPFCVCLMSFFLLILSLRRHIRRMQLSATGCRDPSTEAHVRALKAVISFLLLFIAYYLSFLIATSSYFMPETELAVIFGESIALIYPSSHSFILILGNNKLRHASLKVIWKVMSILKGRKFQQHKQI
hT2R5, sequence (Q9NYW4 whole entry): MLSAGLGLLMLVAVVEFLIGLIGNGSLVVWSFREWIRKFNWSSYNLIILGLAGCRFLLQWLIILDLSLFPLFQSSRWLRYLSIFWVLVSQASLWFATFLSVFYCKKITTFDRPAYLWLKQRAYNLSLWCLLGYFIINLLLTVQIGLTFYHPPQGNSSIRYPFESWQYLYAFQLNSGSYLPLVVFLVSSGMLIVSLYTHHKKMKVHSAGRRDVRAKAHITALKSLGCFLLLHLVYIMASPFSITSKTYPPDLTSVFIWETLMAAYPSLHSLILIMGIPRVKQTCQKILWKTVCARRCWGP
hT2R71, sequence (P59536 whole entry): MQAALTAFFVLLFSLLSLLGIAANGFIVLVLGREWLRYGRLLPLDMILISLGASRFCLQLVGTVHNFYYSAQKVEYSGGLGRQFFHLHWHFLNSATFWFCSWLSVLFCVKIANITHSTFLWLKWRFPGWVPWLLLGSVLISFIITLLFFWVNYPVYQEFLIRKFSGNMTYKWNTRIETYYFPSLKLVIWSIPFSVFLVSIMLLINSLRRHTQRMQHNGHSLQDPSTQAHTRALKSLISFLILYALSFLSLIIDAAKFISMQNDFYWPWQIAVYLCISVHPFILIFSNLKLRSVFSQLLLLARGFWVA
T1 sequence (Q9NYV8 whole entry): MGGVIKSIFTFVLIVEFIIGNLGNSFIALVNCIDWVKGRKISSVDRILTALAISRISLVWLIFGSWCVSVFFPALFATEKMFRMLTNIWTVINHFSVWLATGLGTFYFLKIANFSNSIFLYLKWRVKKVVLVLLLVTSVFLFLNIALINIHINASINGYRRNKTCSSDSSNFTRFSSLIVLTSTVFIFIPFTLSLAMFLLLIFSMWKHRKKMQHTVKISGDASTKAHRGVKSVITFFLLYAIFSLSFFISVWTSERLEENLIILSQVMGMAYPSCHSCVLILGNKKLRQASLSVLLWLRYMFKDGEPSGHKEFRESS
hT2R61, sequence (P59537 whole entry): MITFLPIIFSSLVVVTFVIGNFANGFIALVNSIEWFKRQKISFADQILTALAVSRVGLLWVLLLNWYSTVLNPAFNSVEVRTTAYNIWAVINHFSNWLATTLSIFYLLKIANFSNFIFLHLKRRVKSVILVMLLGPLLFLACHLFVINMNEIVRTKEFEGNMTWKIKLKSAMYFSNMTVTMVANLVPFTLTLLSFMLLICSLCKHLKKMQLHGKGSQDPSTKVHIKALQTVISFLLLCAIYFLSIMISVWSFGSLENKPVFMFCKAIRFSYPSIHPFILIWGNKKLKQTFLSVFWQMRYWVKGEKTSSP
hT2R10, sequence (Q9NYW0 whole entry): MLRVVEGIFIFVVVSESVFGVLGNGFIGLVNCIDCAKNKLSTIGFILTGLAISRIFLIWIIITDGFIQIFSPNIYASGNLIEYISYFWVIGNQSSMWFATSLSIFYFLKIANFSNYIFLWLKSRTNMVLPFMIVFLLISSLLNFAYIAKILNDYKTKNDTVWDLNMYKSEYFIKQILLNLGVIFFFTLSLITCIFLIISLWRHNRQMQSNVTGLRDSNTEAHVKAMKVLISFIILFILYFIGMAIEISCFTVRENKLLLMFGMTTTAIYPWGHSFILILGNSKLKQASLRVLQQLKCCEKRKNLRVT
hT2R3, sequence (Q9NYW6 whole entry): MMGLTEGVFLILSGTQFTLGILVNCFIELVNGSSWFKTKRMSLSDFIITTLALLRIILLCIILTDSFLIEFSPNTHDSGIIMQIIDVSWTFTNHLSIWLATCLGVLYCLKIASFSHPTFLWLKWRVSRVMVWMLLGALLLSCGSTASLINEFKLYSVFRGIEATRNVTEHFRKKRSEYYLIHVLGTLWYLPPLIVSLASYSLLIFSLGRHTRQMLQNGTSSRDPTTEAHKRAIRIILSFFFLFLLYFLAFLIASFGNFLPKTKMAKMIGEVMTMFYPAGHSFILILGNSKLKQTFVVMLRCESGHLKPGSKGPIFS
hT2R16, sequence (Q9NYV7 whole entry): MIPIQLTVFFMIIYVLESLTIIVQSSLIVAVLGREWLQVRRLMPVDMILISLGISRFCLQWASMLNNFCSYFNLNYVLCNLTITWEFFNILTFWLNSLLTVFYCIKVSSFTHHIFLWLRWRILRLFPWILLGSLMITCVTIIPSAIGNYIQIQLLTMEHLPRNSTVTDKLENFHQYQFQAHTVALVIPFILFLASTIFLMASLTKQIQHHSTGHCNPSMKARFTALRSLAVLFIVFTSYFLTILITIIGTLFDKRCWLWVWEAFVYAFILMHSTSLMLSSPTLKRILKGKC
hT2R64, sequence (P59538 whole entry): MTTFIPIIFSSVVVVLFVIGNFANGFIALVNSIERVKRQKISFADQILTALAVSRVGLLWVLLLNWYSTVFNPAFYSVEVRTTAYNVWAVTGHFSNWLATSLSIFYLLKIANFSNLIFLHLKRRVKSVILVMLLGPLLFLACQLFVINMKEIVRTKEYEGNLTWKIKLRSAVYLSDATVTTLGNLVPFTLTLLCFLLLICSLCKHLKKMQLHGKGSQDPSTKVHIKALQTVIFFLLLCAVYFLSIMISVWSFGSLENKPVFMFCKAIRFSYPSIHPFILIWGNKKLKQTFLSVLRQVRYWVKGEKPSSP
hT2R51, sequence (P59533 whole entry): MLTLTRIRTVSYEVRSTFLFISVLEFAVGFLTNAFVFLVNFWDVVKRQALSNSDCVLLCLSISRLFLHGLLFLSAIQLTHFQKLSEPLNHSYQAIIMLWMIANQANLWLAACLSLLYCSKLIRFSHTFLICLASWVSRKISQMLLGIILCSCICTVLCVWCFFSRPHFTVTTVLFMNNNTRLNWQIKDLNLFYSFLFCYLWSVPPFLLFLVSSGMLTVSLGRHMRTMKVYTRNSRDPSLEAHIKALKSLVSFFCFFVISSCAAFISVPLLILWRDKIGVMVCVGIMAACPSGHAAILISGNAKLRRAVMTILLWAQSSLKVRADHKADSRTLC

| Structure (SMILES) | inhibition at 25 µM (hT2R3) | screening result against bitter receptor 55 (hT2R55) | inhibition at 25 µM (hT2R64; [3]) | inhibition at 25 µM (hT2R16; [4]) | inhibition at 25 µM (hT2R14 [2]; [5]) | inhibition at 25 µM (hT2R10) | inhibition at 25 µM (hT2R71; [6]) | screening result against bitter receptor 65 (hT2R65) | inhibition at 25 µM (hT2R5) | screening result against bitter receptor 54 (hT2R54) | screening result against bitter receptor 44 (hT2R44) | screening result against bitter receptor 63 (hT2R63) | inhibition at 25 µM (hT2R61; [7]) | inhibition at 25 µM (hT2R7) | screening result against bitter receptor 67 (hT2R67) | inhibition at 25 µM (hT2R51) | further results |
| --- | --- | --- | --- | --- | --- | --- | --- | --- | --- | --- | --- | --- | --- | --- | --- | --- | --- |
| COc1ccc(CN(CCc2ccccc2)S(=O)(=O)c2ccc(C(=O)O)cc2)cc1 [Example 5-19, 4-(N-(4-methoxybenzyl)-N-phenethylsulfamoyl)benzoic acid] | 20 to 40% | ++++ (80% or greater inhibition = ++++) | > 80% | 20 to 40% | > 80% | 20 to 40% | 20 to 40% | + (20% to 40% inhibition = +) | 20 to 40% | + (20% to 40% inhibition = +) | ++ (40% to 60% inhibition = ++) |  |  |  |  |  | IC50 (hT2R14 [1]): 4.58 µM |
| COc1ccc(CN(Cc2ccc(F)c(F)c2)S(=O)(=O)c2ccc(C(=O)O)cc2)cc1 [Example 5-36, 4-(N-(3,4-difluorobenzyl)-N-(4-methoxybenzyl)sulfamoyl)benzoic acid] | 40 to 60% | ++++ (80% or greater inhibition = ++++) | > 80% | 20 to 40% | > 80% | 20 to 40% | 60 to 80% | ++ (40% to 60% inhibition = ++) |  | + (20% to 40% inhibition = +) | ++ (40% to 60% inhibition = ++) | +++ (60% to 80% inhibition = +++) | > 80% | 20 to 40% |  |  |  |
| O=C(O)c1ccc(CN(Cc2ccccc2)S(=O)(=O)c2ccc(C(=O)O)cc2)cc1 [Example 5-48, 4-((N-benzyl-4-carboxyphenylsulfonamido)methyl)benzoic acid] | 40 to 60% | ++++ (80% or greater inhibition = ++++) | 60 to 80% | 20 to 40% | > 80% | 60 to 80% | 60 to 80% | ++ (40% to 60% inhibition = ++) | 20 to 40% | ++ (40% to 60% inhibition = ++) | +++ (60% to 80% inhibition = +++) |  | > 80% |  | + (20% to 40% inhibition = +) |  |  |
| COc1cccc(CN(Cc2ccccc2)S(=O)(=O)c2ccc(C(=O)O)cc2)c1 [Example 5-74, 4-(N-benzyl-N-(3-methoxybenzyl)sulfamoyl)benzoic acid] | 20 to 40% | +++ (60% to 80% inhibition = +++) | 20 to 40% | 20 to 40% | > 80% | 40 to 60% | 60 to 80% | ++ (40% to 60% inhibition = ++) | 20 to 40% | ++ (40% to 60% inhibition = ++) | + (20% to 40% inhibition = +) | ++++ (80% or greater inhibition = ++++) | > 80% | 20 to 40% | + (20% to 40% inhibition = +) | 40 to 60% |  |
| O=C(O)c1ccc(S(=O)(=O)N(Cc2ccccc2)Cc2cccc(F)c2)cc1 [Example 5-79, 4-(N-benzyl-N-(3-fluorobenzyl)sulfamoyl)benzoic acid] | 40 to 60% | +++ (60% to 80% inhibition = +++) | 60 to 80% | 20 to 40% | > 80% | 20 to 40% | 60 to 80% | ++ (40% to 60% inhibition = ++) | 20 to 40% | + (20% to 40% inhibition = +) | ++ (40% to 60% inhibition = ++) | ++++ (80% or greater inhibition = ++++) | > 80% |  | + (20% to 40% inhibition = +) | > 80% |  |
| COc1ccc(CCN(Cc2ccccc2)S(=O)(=O)c2ccc(C(=O)O)cc2)cc1 [Example 5-81, 4-(N-benzyl-N-(4-methoxyphenethyl)sulfamoyl)benzoic acid] | 20 to 40% | +++ (60% to 80% inhibition = +++) | 40 to 60% | 20 to 40% | > 80% | 20 to 40% | 20 to 40% | + (20% to 40% inhibition = +) |  |  | ++ (40% to 60% inhibition = ++) | +++ (60% to 80% inhibition = +++) | 60 to 80% | 20 to 40% | + (20% to 40% inhibition = +) | 20 to 40% |  |
| N#Cc1ccc(CN(Cc2ccccc2)S(=O)(=O)c2ccc(C(=O)O)cc2)cc1 [Example 5-91, 4-(N-benzyl-N-(4-cyanobenzyl)sulfamoyl)benzoic acid] | 60 to 80% | ++++ (80% or greater inhibition = ++++) | > 80% | 20 to 40% | > 80% | 40 to 60% | 60 to 80% |  | 20 to 40% | + (20% to 40% inhibition = +) | +++ (60% to 80% inhibition = +++) | ++++ (80% or greater inhibition = ++++) | > 80% |  | + (20% to 40% inhibition = +) |  |  |
| COc1ccc2c(c1)-c1ccccc1CN(S(=O)(=O)c1ccc(C(=O)O)cc1)C2 [Example 5-106, 4-(2-methoxy-5H-dibenzo[c,e]azepin-6(7H)-ylsulfonyl)benzoic acid] |  |  |  |  |  |  |  |  |  |  |  |  |  |  |  |  | inhibition of bitter receptor 55 (hT2R55; [8]): ++++ (80% or greater inhibition = ++++); inhibition at 25 µM (hT2R64; receptor activated to EC80 with agonist, read-out: inhibition of bitter receptor 64): 60 to 80%; inhibition of bitter receptor 63 (hT2R63; [8]): ++++ (80% or greater inhibition = ++++); inhibition at 25 µM (hT2R61; receptor activated to EC80 with agonist, read-out: inhibition of bitter receptor 61): 40 to 60%; inhibition at 25 µM (hT2R16; receptor activated to EC80 with agonist, read-out: inhibition of bitter receptor 16): 20 to 40%; inhibition at 25 µM (hT2R14 [2]; receptor activated to EC80 with agonist, read-out: inhibition of bitter receptor 14): > 80%; inhibition at 25 µM (hT2R71; receptor activated to EC80 with agonist, read-out: inhibition of bitter receptor 71): 20 to 40%; inhibition of bitter receptor 54 (hT2R54; [8]): ++ (40% to 60% inhibition = ++); inhibition of bitter receptor 67 (hT2R67; [8]): + (20% to 40% inhibition = +); inhibition of bitter receptor 44 (hT2R44; [8]): ++ (40% to 60% inhibition = ++) |
